Converted amounts (≈) assume the structure as drawn.
Columns and labels:
[1] = system: Pseudomonas aeruginosa PAO1-Xen41; experiment: EC50 of growth/kill rate concentration-effect curve
Method: (§1)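 Time-kill assays of bioluminescent P. aeruginosa PAO1-Xen41 (start ~5e6 CFU/mL) in 96-well plates at 37 °C, 150 rpm. Luminescence was read hourly for 20 h in cation-adjusted Mueller-Hinton broth, either non-conditioned (MH broth with or without supplements) or conditioned by one of 13 CF-associated species, then filter-sterilised and nutrient-replenished. Growth/kill rates came from log-linear regression of the exponential phase at 9-10 antibiotic concentrations, and Hill (Emax) models were fitted with drc for each replicate.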

[2] = system: Pseudomonas aeruginosa PAO1-Xen41; experiment: Hill coefficient of concentration-effect curve (unitless); higher = steeper concentration-effect curve
Method: as §1

[3] = system: Pseudomonas aeruginosa PAO1-Xen41; experiment: Emax, maximal drug effect on net growth rate (fitted lower asymptote) (per hour (slope of log luminescence)); higher = weaker maximal killing (less negative)
Method: as §1

NC[C@H]1O[C@H](O[C@H]2[C@H](O)[C@@H](O[C@H]3O[C@H](CO)[C@@H](O)[C@H](N)[C@H]3O)[C@H](N)C[C@@H]2N)[C@H](N)C[C@@H]1O [tobramycin]
Conditions	EC50, [1] [µg/mL]	Emax, [3]	Hill coefficient, [2]
medium (conditioned by secondary species or non-conditioned control): A. baumannii	0.257 (≈ 0.55 µM)	-0.121	16.7
medium (conditioned by secondary species or non-conditioned control): A. fumigatus	0.7033 (≈ 1.5 µM)	-0.188	4.28
medium (conditioned by secondary species or non-conditioned control): A. xylosoxidans	0.2759 (≈ 0.59 µM)	-0.157	14.8
medium (conditioned by secondary species or non-conditioned control): B. cepacia	0.144 (≈ 0.308 µM)	-0.131	10.6
medium (conditioned by secondary species or non-conditioned control): C. albicans	0.565 (≈ 1.21 µM)	-0.214	3.52
medium (conditioned by secondary species or non-conditioned control): H. influenzae	0.185 (≈ 0.397 µM)	-0.126	14.4
medium (conditioned by secondary species or non-conditioned control): M. abcessus	0.135 (≈ 0.288 µM)	-0.095	4.76
medium (conditioned by secondary species or non-conditioned control): M. avium	0.201 (≈ 0.429 µM)	-0.17	9.2
medium (conditioned by secondary species or non-conditioned control): M. catarrhalis	0.145 (≈ 0.31 µM)	-0.134	9.95
medium (conditioned by secondary species or non-conditioned control): MH broth	0.136 (≈ 0.29 µM)	-0.122	5.72
medium (conditioned by secondary species or non-conditioned control): MH broth + ADC	0.197	-0.172	11.3
medium (conditioned by secondary species or non-conditioned control): MH broth + LHB + NAD	0.138	-0.116	10.7
medium (conditioned by secondary species or non-conditioned control): MH broth + glucose	0.393	-0.21	3.39
medium (conditioned by secondary species or non-conditioned control): R. mannitolilytica	0.0784 (≈ 0.168 µM)	-0.107	8.12
medium (conditioned by secondary species or non-conditioned control): S. aureus	0.0695 (≈ 0.149 µM)	-0.121	10
medium (conditioned by secondary species or non-conditioned control): S. maltophilia	0.137 (≈ 0.293 µM)	-0.197	6.76
medium (conditioned by secondary species or non-conditioned control): S. pneumoniae	0.471 (≈ 1.01 µM)	-0.128	12.4

From the supplement of paper PMC11619387
